For one data set, the target named is T1, AMSH (Homo sapiens, UniProt O95630).
T1 sequence (O95630 1-424): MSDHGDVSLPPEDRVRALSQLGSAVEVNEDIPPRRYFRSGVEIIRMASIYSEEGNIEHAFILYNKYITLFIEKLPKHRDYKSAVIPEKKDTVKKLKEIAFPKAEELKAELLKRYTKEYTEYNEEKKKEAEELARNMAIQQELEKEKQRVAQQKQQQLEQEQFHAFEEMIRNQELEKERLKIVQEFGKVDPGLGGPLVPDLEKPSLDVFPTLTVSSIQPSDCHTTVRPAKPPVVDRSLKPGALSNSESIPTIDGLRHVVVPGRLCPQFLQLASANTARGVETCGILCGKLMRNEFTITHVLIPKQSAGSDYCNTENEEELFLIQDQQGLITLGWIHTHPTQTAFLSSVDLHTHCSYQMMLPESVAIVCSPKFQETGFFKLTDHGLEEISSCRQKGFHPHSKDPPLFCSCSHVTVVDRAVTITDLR
As to the kind of experiment: Platform comparison of DUB substrates, signal to background. Format: biochemical. To be noted: DUB 10 nM; signal at 30 minutes; Ub-LUC 100 nM, DUB-Glo substrate 20 μM, Ub-AMC/Ub-rho 250 nM. The protocol:
(§1) For Ub-AMC and Ub-Rhodamine110, all enzymes were diluted into 50 mM Tris, pH 8.0, 5 mM DTT, 0.05% CHAPS to a final concentration of 10 nM. […] Either Ub-AMC or Ub-Rhodamine110 (final reaction concentration equal to 250 nM) were diluted into 50 mM Tris, pH 8.0, 5 mM DTT, 0.05% (w/v) CHAPS. […] For Ub-Rhodamine110, fluorescence was monitored with filters corresponding to excitation at 485 nm and emission at 531 nm.

The target in the next data set is Ataxin3 (Homo sapiens, UniProt P54252). The description is as above. It is filed as biochemical. To be noted: DUB 10 nM; signal at 30 minutes; Ub-LUC 100 nM, DUB-Glo substrate 20 μM, Ub-AMC/Ub-rho 250 nM. The protocol: as §1
The next data set concerns the target T2, Ataxin3-like (Homo sapiens, UniProt Q9H3M9).
T2 sequence (Q9H3M9 1-355): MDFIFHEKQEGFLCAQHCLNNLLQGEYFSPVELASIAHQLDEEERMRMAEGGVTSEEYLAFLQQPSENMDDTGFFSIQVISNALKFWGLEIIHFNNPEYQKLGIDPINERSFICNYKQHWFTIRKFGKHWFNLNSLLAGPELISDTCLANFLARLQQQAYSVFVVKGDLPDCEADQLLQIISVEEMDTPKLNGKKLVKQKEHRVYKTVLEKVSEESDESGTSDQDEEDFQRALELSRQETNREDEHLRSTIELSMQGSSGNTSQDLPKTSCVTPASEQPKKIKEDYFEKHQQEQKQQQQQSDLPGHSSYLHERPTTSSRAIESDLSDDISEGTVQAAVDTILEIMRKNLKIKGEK
Described as above. Format: biochemical. To be noted: DUB 10 nM; signal at 30 minutes; Ub-LUC 100 nM, DUB-Glo substrate 20 μM, Ub-AMC/Ub-rho 250 nM. How it is done: as §1

A further data set addresses JosD1 (Homo sapiens, UniProt Q15040). Described as above. It is filed as biochemical. To be noted: DUB 10 nM; signal at 30 minutes; Ub-LUC 100 nM, DUB-Glo substrate 20 μM, Ub-AMC/Ub-rho 250 nM. How it is done: as §1
For another data set, the target named is T3, JosD2 (Homo sapiens, UniProt Q8TAC2).
T3 sequence (Q8TAC2 1-188): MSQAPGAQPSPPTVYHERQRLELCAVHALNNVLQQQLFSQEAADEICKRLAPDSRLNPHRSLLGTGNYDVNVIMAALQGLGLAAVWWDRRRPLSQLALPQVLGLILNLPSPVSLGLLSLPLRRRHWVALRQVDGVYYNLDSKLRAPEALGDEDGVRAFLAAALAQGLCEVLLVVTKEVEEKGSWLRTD
Described as above. It is filed as biochemical. To be noted: DUB 10 nM; signal at 30 minutes; Ub-LUC 100 nM, DUB-Glo substrate 20 μM, Ub-AMC/Ub-rho 250 nM. How it is done: as §1

The target in another data set is T4, Otub2 (Homo sapiens, UniProt Q96DC9).
T4 sequence (Q96DC9 1-234): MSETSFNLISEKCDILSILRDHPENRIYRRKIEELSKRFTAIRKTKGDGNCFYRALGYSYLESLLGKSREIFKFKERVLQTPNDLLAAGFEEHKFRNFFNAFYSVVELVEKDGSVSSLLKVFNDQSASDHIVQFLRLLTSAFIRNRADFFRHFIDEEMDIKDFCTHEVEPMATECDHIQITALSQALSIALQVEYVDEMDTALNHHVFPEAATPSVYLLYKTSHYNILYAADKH
The description is as above. Format: biochemical. The settings on record: DUB 10 nM; signal at 30 minutes; Ub-LUC 100 nM, DUB-Glo substrate 20 μM, Ub-AMC/Ub-rho 250 nM. The protocol: as §1

A further data set addresses T5, UCHL5 (Homo sapiens, UniProt Q9Y5K5).
T5 sequence (Q9Y5K5 1-329): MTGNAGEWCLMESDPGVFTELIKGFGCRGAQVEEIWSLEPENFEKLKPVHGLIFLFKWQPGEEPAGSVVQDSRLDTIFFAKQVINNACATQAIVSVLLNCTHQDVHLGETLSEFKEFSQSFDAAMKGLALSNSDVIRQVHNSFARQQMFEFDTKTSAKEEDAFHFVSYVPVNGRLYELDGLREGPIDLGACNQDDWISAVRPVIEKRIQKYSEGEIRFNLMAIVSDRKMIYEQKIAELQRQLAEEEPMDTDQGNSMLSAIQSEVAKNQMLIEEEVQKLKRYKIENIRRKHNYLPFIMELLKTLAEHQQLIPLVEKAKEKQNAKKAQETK
The description is as above. Format: biochemical. To be noted: DUB 10 nM; signal at 30 minutes; Ub-LUC 100 nM, DUB-Glo substrate 20 μM, Ub-AMC/Ub-rho 250 nM. How it is done:
as §1

Data set [1] concerns Otub2, JosD1, JosD2, AMSH, Ataxin3, Ataxin3-like, UCHL5, USP20, and USP14. As to the kind of experiment: Substrate comparison on panel of nine isopeptidases. Format: biochemical. The settings on record: seven of nine DUBs (exceptions JosD2 and UCHL5). How it is done:
as §1

The next data set has as its target USP14 (Homo sapiens, UniProt P54578). Nature of the data set: Platform comparison of DUB substrates, signal to background. Format: biochemical. The settings on record: DUB 10 nM; signal at 30 minutes; Ub-LUC 100 nM, DUB-Glo substrate 20 μM, Ub-AMC/Ub-rho 250 nM. The protocol: as §1
The next data set addresses T6, isopeptidase T (Homo sapiens, UniProt P45974).
T6 sequence (P45974 1-858): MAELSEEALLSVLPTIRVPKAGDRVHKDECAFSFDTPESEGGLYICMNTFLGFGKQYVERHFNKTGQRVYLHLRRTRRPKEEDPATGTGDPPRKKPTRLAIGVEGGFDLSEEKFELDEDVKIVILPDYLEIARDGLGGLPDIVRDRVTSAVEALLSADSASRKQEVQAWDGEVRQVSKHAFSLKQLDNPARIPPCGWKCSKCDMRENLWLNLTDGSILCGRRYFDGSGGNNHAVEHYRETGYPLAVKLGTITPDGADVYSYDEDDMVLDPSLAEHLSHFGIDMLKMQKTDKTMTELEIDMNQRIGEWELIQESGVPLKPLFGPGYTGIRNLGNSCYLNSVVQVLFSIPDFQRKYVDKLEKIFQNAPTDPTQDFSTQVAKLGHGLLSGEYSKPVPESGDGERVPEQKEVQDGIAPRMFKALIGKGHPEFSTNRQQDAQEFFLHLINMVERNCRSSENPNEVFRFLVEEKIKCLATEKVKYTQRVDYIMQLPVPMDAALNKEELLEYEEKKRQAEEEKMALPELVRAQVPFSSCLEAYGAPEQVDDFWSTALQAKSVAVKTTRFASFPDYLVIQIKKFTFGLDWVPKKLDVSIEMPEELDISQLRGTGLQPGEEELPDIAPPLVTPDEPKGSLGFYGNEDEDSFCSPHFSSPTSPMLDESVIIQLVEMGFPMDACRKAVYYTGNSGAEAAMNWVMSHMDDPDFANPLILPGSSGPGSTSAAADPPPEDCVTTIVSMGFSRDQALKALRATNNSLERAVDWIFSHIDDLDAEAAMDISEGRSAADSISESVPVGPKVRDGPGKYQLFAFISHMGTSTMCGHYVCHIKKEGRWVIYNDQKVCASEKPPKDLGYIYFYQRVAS
The settings on record: Dang et al., 1998; cited from earlier work.

Chain of Ataxin3 (P54252 whole entry, species assumed): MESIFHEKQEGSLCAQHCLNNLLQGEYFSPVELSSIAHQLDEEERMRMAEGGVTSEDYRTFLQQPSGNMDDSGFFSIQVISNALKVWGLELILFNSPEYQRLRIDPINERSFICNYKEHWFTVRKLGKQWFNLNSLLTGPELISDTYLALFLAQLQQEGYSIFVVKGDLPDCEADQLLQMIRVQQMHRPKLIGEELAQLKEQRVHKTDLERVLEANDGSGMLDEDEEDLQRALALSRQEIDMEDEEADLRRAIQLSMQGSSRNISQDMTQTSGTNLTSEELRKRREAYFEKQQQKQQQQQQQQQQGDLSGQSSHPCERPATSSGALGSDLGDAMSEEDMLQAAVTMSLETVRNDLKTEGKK
Chain of USP14 (P54578 whole entry, species assumed): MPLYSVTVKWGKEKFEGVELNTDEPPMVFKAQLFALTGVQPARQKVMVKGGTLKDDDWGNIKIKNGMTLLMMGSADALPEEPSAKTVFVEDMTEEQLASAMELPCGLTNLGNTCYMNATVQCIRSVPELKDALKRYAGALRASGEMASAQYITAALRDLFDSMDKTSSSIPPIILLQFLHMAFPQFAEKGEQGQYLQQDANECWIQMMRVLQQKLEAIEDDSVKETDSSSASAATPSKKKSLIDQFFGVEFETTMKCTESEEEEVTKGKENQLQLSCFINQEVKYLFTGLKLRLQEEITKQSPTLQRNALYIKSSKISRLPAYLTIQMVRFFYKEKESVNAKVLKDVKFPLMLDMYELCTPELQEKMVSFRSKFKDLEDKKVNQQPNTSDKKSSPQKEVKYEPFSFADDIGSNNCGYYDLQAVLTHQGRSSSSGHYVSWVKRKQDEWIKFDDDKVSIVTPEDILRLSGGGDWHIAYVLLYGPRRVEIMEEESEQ

As to ubiquitin-rhodamine110 [Ub-rho], the “Signal to Background value” at AMSH came out at 1.2; on Ataxin3, 1.3; on Ataxin3-like, 1.6; at JosD1 it was 1.5; on JosD2, 8.2; on Otub2, 1.7. For the same substance, the “Signal to Background value” on UCHL5 is reported as 103. Also, the “detectable activity (S/B>3)” value in data set [1] (listed as Ub-Rhodamine110) is “no detectable activity”; in [1] (listed as Ub-rhodamine110), “little to no detectable activity”.

For the substance “ubiquitin-7-amino-4-methylcoumarin [Ub-AMC]”, the “Signal to Background value” at AMSH is 1.0; at Ataxin3 it was 0.9; at Ataxin3-like, 1.1; on JosD1, 1.1; at JosD2, 2.1; at Otub2 it was 1.2. For the same substance, the “Signal to Background value” at UCHL5 is recorded as 8.1; at USP14 it was 1.0. Moreover, in [1], the “detectable activity (S/B>3)” value is on record as “little to no detectable activity”. In the data set with isopeptidase T, the “relative catalytic efficiency (kcat/Km), fold higher than AMC derivative of Z-Leu-Arg-Gly-Gly peptide” value is listed as about 8000 fold.

The values are drawn from patent US20120058499A1, “Bioluminescent Detection of Protease Activity” (priority 2010, published 2012).
